Test results: patent US4175081A, “5-Substituted thiadiazole ureas” (priority 1977, dated 1979)

Experiments:
Crabgrass (CG) [1] = assay: Pre-emergence herbicide test; assay type: in vivo, Digitaria sanquinalis; conditions: Digitaria sanguinalis, pre-emergence, 336 h, two weeks after treatment; for pest or weed control at 560.425 g/ha: 0.5 lb/acre; for pest or weed control at 1120.85 g/ha: 1 lb/acre; for pest or weed control at 2241.7 g/ha: 2 lb/acre; for pest or weed control at 4483.4 g/ha: 4 lb/acre
Summary of the method: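 Crabgrass (Digitaria sanquinalis) was surface seeded in 3' plastic pots of potting soil, covered with screened soil, and watered by sub-irrigation in greenhouse trays. Pots were seeded one day before spraying in a hood with a moving belt and fixed nozzle. Plants stayed in the greenhouse on sub-irrigation, and pre-emergence control was rated visually two weeks after treatment.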

Johnson grass (JG) = assay: Pre-emergence herbicide test; assay type: in vivo, Sorgum helepense; conditions: Sorghum halepense, 336 h, two weeks after treatment; for pest or weed control at 560.425 g/ha: 0.5 lb/acre; for pest or weed control at 1120.85 g/ha: 1 lb/acre; for pest or weed control at 2241.7 g/ha: 2 lb/acre; for pest or weed control at 4483.4 g/ha: 4 lb/acre
Summary of the method: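 Visual injury or control rating two weeks post-treatment, after pre-emergence spray of 8 or 4 lbs active per acre (38 gal/acre) onto pots sown the previous day. Greenhouse watering by sub-irrigation only.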

Barnyard grass (BG) = assay: Pre-emergence herbicide test; assay type: in vivo; conditions: Echinochloa crus-galli, 336 h, two weeks after treatment; for pest or weed control at 560.425 g/ha: 0.5 lb/acre; for pest or weed control at 1120.85 g/ha: 1 lb/acre; for pest or weed control at 2241.7 g/ha: 2 lb/acre; for pest or weed control at 4483.4 g/ha: 4 lb/acre
Summary of the method: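 Greenhouse pre-emergence spray test: pots seeded one day before treatment received compound at rates of 8 or 4 lb/acre (38 gal/acre). Visual injury/control scores for Echinochloa crus-galli taken at two weeks, with watering by sub-irrigation only.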

Amaranth pigweed (PW) = assay: Pre-emergence herbicide test; assay type: in vivo, Amaranthus retroflexus; conditions: 336 h, two weeks after treatment; for pest or weed control at 560.425 g/ha: 0.5 lb/acre; for pest or weed control at 1120.85 g/ha: 1 lb/acre; for pest or weed control at 2241.7 g/ha: 2 lb/acre; for pest or weed control at 4483.4 g/ha: 4 lb/acre
Summary of the method: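 Visual injury or control ratings were made at two weeks on pre-emergence pots, sub-irrigated in the greenhouse. Seeds were sown a day before a hood spray delivering 8 lbs/acre (or 4 lbs/acre) of compound in 38 gallons per acre.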

Turnip (TP) [2] = assay: Pre-emergence herbicide test; assay type: in vivo, Brassica sp.; conditions: Brassica rapa, pre-emergence, 336 h, two weeks after treatment; for pest or weed control at 560.425 g/ha: 0.5 lb/acre; for pest or weed control at 1120.85 g/ha: 1 lb/acre; for pest or weed control at 2241.7 g/ha: 2 lb/acre; for pest or weed control at 4483.4 g/ha: 4 lb/acre
Summary of the method: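 In this pre-emergence greenhouse test, turnip was seeded on the surface of potting soil in 3' plastic pots, lightly covered with screened soil, and watered from below. One day later the pots were sprayed in a belt-fed spray hood. Watering continued only by sub-irrigation, and percent control was visually scored two weeks after treatment.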

Cotton (CT) [3] = assay: Pre-emergence herbicide test; assay type: in vivo, Gossypium hirsutum var. DPL smooth leaf; conditions: Gossypium hirsutum, 336 h, two weeks after treatment; for pest or weed control at 560.425 g/ha: 0.5 lb/acre; for pest or weed control at 1120.85 g/ha: 1 lb/acre; for pest or weed control at 2241.7 g/ha: 2 lb/acre; for pest or weed control at 4483.4 g/ha: 4 lb/acre
Summary of the method: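 Visual injury/control ratings were taken at two weeks post-spray. Pots seeded a day earlier received compound pre-emergence at 8 lbs/acre, or 4 lbs/acre, in a 38 gallon/acre spray volume, and were then held in the greenhouse, watered only from below.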

Corn (CN) = assay: Pre-emergence herbicide test; assay type: in vivo; conditions: Zea mays, 336 h, two weeks after treatment; for pest or weed control at 560.425 g/ha: 0.5 lb/acre; for pest or weed control at 1120.85 g/ha: 1 lb/acre; for pest or weed control at 2241.7 g/ha: 2 lb/acre; for pest or weed control at 4483.4 g/ha: 4 lb/acre
Summary of the method: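 Visual injury/control ratings were made 2 weeks post-spray on corn pots seeded (4 seeds, seed-diameter depth) the day before treatment. Application was a belt-hood spray of 38 gal/acre delivering 8 lbs active per acre, with a 4 lbs/acre rate also formulated. Watering was by sub-irrigation throughout.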

Bean (BN) [4] = assay: Pre-emergence herbicide test; assay type: in vivo, Phaseolus vulgaris var. Black Valentine; conditions: Phaseolus vulgaris, 336 h, two weeks after treatment; for pest or weed control at 560.425 g/ha: 0.5 lb/acre; for pest or weed control at 1120.85 g/ha: 1 lb/acre; for pest or weed control at 2241.7 g/ha: 2 lb/acre; for pest or weed control at 4483.4 g/ha: 4 lb/acre
Summary of the method: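 Visual injury/control ratings were taken two weeks post-spray on sub-irrigated Phaseolus vulgaris var. Black Valentine. Pots were sown a day before treatment. Pre-emergence spray delivered 8 lbs actual compound per acre (or 4 lbs/acre) at 38 gallons per acre.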

Crabgrass (CG) [5] = assay: Post-emergence herbicide test; assay type: in vivo, Digitaria sanquinalis; conditions: Digitaria sanguinalis, post-emergence, 336 h, two weeks after treatment; for pest or weed control at 560.425 g/ha: 0.5 lb/acre; for pest or weed control at 1120.85 g/ha: 1 lb/acre; for pest or weed control: 2 lb/acre; for pest or weed control at 4483.4 g/ha: 4 lb/acre
Summary of the method: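 Crabgrass (Digitaria sanquinalis) was surface seeded individually in 3' plastic pots of potting soil, covered with screened soil, and watered by sub-irrigation in greenhouse trays. Planting was staggered so seedlings reached the target stage together. Post-emergence sprays were applied in a hood with a removable belt and fixed nozzle, and control was visually rated two weeks after treatment.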

Turnip (TP) [6] = assay: Post-emergence herbicide test; assay type: in vivo, Brassica sp.; conditions: Brassica rapa, post-emergence, 336 h, two weeks after treatment; for pest or weed control at 560.425 g/ha: 0.5 lb/acre; for pest or weed control at 1120.85 g/ha: 1 lb/acre; for pest or weed control at 2241.7 g/ha: 2 lb/acre; for pest or weed control at 4483.4 g/ha: 4 lb/acre
Summary of the method: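 A greenhouse post-emergence herbicide test on turnip. Seeds were sown on the surface of potting soil in 3' plastic pots, lightly covered with screened soil and watered from below. Planting was timed so seedlings had 1 or 2 true leaves above the cotyledons at spraying, done in a hood with a fixed nozzle. Control or injury was scored by eye after two weeks.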

Cotton (CT) [7] = assay: Post-emergence herbicide test; assay type: in vivo, Gossypium hirsutum var. DPL smooth leaf; conditions: Gossypium hirsutum, post-emergence, 336 h, two weeks after treatment; for pest or weed control at 560.425 g/ha: 0.5 lb/acre; for pest or weed control at 1120.85 g/ha: 1 lb/acre; for pest or weed control at 2241.7 g/ha: 2 lb/acre; for pest or weed control at 4483.4 g/ha: 4 lb/acre
Summary of the method: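 This greenhouse post-emergence test measured how well spray treatments controlled cotton. Seedlings of Gossypium hirsutum var. DPL smooth leaf, with expanded cotyledons and a first true leaf 1' in length, were sprayed with 50 ml formulations in a belt-fed spray hood. They were then returned to the greenhouse and watered only by sub-irrigation. Injury was scored visually as % control after two weeks.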

Bean (BN) [8] = assay: Post-emergence herbicide test; assay type: in vivo, Phaseolus vulgaris var. Black Valentine; conditions: Phaseolus vulgaris, post-emergence, 336 h, two weeks after treatment; for pest or weed control at 560.425 g/ha: 0.5 lb/acre; for pest or weed control at 1120.85 g/ha: 1 lb/acre; for pest or weed control at 2241.7 g/ha: 2 lb/acre; for pest or weed control at 4483.4 g/ha: 4 lb/acre
Summary of the method: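 Bean seedlings (Phaseolus vulgaris var. Black Valentine) were grown in potting soil in 3' pots until the primary leaves expanded. They were then sprayed under a hood with a removable belt and fixed nozzle, using 50 ml formulations. Afterward they were returned to the greenhouse and watered only by sub-irrigation. Percent control was judged visually two weeks after treatment.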

## CCCCS(=O)(=O)c1nnc(N(C)C(=O)NC)s1 [Example 92]
Crabgrass (CG) [1]
  pest or weed control at 560.425 g/ha: 40%
  pest or weed control at 1120.85 g/ha: 60%
  pest or weed control at 2241.7 g/ha: 100%
  pest or weed control at 4483.4 g/ha: 100%
Johnson grass (JG)
  pest or weed control at 560.425 g/ha: 10%
  pest or weed control at 1120.85 g/ha: 10%
  pest or weed control at 2241.7 g/ha: 30%
  pest or weed control at 4483.4 g/ha: 60%
Barnyard grass (BG)
  pest or weed control at 560.425 g/ha: 10%
  pest or weed control at 1120.85 g/ha: 50%
  pest or weed control at 2241.7 g/ha: 70%
  pest or weed control at 4483.4 g/ha: 90%
Amaranth pigweed (PW)
  pest or weed control at 560.425 g/ha: 10%
  pest or weed control at 1120.85 g/ha: 10%
  pest or weed control at 2241.7 g/ha: 30%
  pest or weed control at 4483.4 g/ha: 50%
Turnip (TP) [2]
  pest or weed control at 560.425 g/ha: 10%
  pest or weed control at 1120.85 g/ha: 60%
  pest or weed control at 2241.7 g/ha: 90%
  pest or weed control at 4483.4 g/ha: 90%
Cotton (CT) [3]
  pest or weed control at 560.425 g/ha: 10%
  pest or weed control at 1120.85 g/ha: 10%
  pest or weed control at 2241.7 g/ha: 10%
  pest or weed control at 4483.4 g/ha: 10%
Corn (CN)
  pest or weed control at 560.425 g/ha: 10%
  pest or weed control at 1120.85 g/ha: 10%
  pest or weed control at 2241.7 g/ha: 10%
  pest or weed control at 4483.4 g/ha: 10%
Bean (BN) [4]
  pest or weed control at 560.425 g/ha: 10%
  pest or weed control at 1120.85 g/ha: 10%
  pest or weed control at 2241.7 g/ha: 10%
  pest or weed control at 4483.4 g/ha: 10%
Crabgrass (CG) [5]
  pest or weed control at 560.425 g/ha: 30%
  pest or weed control at 1120.85 g/ha: 30%
  pest or weed control: 90%
  pest or weed control at 4483.4 g/ha: 90%
Turnip (TP) [6]
  pest or weed control at 560.425 g/ha: 100%
  pest or weed control at 1120.85 g/ha: 100%
  pest or weed control at 2241.7 g/ha: 100%
  pest or weed control at 4483.4 g/ha: 100%
Cotton (CT) [7]
  pest or weed control at 560.425 g/ha: 100%
  pest or weed control at 1120.85 g/ha: 100%
  pest or weed control at 2241.7 g/ha: 100%
  pest or weed control at 4483.4 g/ha: 100%
Bean (BN) [8]
  pest or weed control at 560.425 g/ha: 70%
  pest or weed control at 1120.85 g/ha: 80%
  pest or weed control at 2241.7 g/ha: 90%
  pest or weed control at 4483.4 g/ha: 100%

## CCSc1nnc(N(C)C(=O)NC)s1 [Example 89]
Crabgrass (CG) [1]
  pest or weed control at 560.425 g/ha: 50%
  pest or weed control at 1120.85 g/ha: 90%
  pest or weed control at 2241.7 g/ha: 90%
  pest or weed control at 4483.4 g/ha: 100%
Johnson grass (JG)
  pest or weed control at 560.425 g/ha: 40%
  pest or weed control at 1120.85 g/ha: 50%
  pest or weed control at 2241.7 g/ha: 80%
  pest or weed control at 4483.4 g/ha: 70%
Barnyard grass (BG)
  pest or weed control at 560.425 g/ha: 30%
  pest or weed control at 1120.85 g/ha: 80%
  pest or weed control at 2241.7 g/ha: 80%
  pest or weed control at 4483.4 g/ha: 100%
Amaranth pigweed (PW)
  pest or weed control at 560.425 g/ha: 70%
  pest or weed control at 1120.85 g/ha: 100%
  pest or weed control at 2241.7 g/ha: 100%
  pest or weed control at 4483.4 g/ha: 100%
Turnip (TP) [2]
  pest or weed control at 560.425 g/ha: 30%
  pest or weed control at 1120.85 g/ha: 70%
  pest or weed control at 2241.7 g/ha: 80%
  pest or weed control at 4483.4 g/ha: 90%
Cotton (CT) [3]
  pest or weed control at 560.425 g/ha: 10%
  pest or weed control at 1120.85 g/ha: 10%
  pest or weed control at 2241.7 g/ha: 10%
  pest or weed control at 4483.4 g/ha: 50%
Corn (CN)
  pest or weed control at 560.425 g/ha: 10%
  pest or weed control at 1120.85 g/ha: 50%
  pest or weed control at 2241.7 g/ha: 40%
  pest or weed control at 4483.4 g/ha: 50%
Bean (BN) [4]
  pest or weed control at 560.425 g/ha: 10%
  pest or weed control at 1120.85 g/ha: 10%
  pest or weed control at 2241.7 g/ha: 10%
  pest or weed control at 4483.4 g/ha: 10%
Crabgrass (CG) [5]
  pest or weed control at 560.425 g/ha: 40%
  pest or weed control at 1120.85 g/ha: 50%
  pest or weed control: 90%
  pest or weed control at 4483.4 g/ha: 90%
Turnip (TP) [6]
  pest or weed control at 560.425 g/ha: 100%
  pest or weed control at 1120.85 g/ha: 100%
  pest or weed control at 2241.7 g/ha: 100%
  pest or weed control at 4483.4 g/ha: 100%
Cotton (CT) [7]
  pest or weed control at 560.425 g/ha: 90%
  pest or weed control at 1120.85 g/ha: 100%
  pest or weed control at 2241.7 g/ha: 100%
  pest or weed control at 4483.4 g/ha: 100%
Bean (BN) [8]
  pest or weed control at 560.425 g/ha: 90%
  pest or weed control at 1120.85 g/ha: 100%
  pest or weed control at 2241.7 g/ha: 100%
  pest or weed control at 4483.4 g/ha: 100%
